Measured values reported in ChEMBL document CHEMBL3271999, “Antimycotic imidazoles. 2. Synthesis and antimycotic properties of 1-[2-(arylalkyl)-2-phenylethyl]-1H-imidazoles” (1977).
The source made the active and inactive calls. No cut-off for these calls is given here.

Legend:
[1] = test system: Trichophyton mentagrophytes; assay: Antifungal activity against Trichophyton mentagrophytes assessed as lowest dose level for total inhibition of fungal growth; format: functional
Sporothrix schenckii = assay: Antifungal activity against Sporothrix schenckii assessed as lowest dose level for total inhibition of fungal growth; format: functional
[2] = test system: Erysipelothrix rhusiopathiae; assay: Antibacterial activity against Erysipelothrix insidiosa assessed as lowest dose level for total inhibition of bacterial growth; format: functional
Aspergillus fumigatus = assay: Antifungal activity against Aspergillus fumigatus assessed as lowest dose level for total inhibition of fungal growth; format: functional
Saprolegnia = assay: Antifungal activity against Saprolegnia species assessed as lowest dose level for total inhibition of fungal growth; format: functional
Streptococcus pyogenes = assay: Antibacterial activity against Streptococcus pyogenes assessed as lowest dose level for total inhibition of bacterial growth; format: functional
Candida tropicalis = assay: Antifungal activity against Candida tropicalis assessed as lowest dose level for total inhibition of fungal growth; format: functional
Trichophyton rubrum = assay: Antifungal activity against Trichophyton rubrum assessed as lowest dose level for total inhibition of fungal growth; format: functional
Mucor = assay: Antifungal activity against Mucor species assessed as lowest dose level for total inhibition of fungal growth; format: functional
Microsporum canis = assay: Antifungal activity against Microsporum canis assessed as lowest dose level for total inhibition of fungal growth; format: functional
[3] = test system: Staphylococcus haemolyticus; assay: Antibacterial activity against Staphylococcus haemolyticus assessed as lowest dose level for total inhibition of bacterial growth; format: functional
Phialophora verrucosa = assay: Antifungal activity against Phialophora verrucosa assessed as lowest dose level for total inhibition of fungal growth; format: functional
Candida albicans [4] = assay: Antifungal activity against Candida albicans assessed as lowest dose level for total inhibition of fungal growth; format: functional
Cryptococcus neoformans = assay: Antifungal activity against Cryptococcus neoformans assessed as lowest dose level for total inhibition of fungal growth; format: functional
Candida albicans [5] = assay: In vivo antifungal activity against Candida albicans topically infected in guinea pig assessed as animal cured at 10 mg/kg, po; format: functional, organism-based; set-up: dose 10 mg/kg

Structure (SMILES): Clc1ccc(CC(Cn2ccnc2)c2ccc(Cl)cc2Cl)c(Cl)c1.O=[N+]([O-])O (stereo not drawn)
- Activity [1]: <1 µg/mL
- Activity (Sporothrix schenckii): <1 µg/mL
- Activity [2]: <1 µg/mL
- Activity (Aspergillus fumigatus): 100 µg/mL
- Activity (Saprolegnia): 100 µg/mL
- Activity (Streptococcus pyogenes): <1 µg/mL
- Activity (Candida tropicalis): 10 µg/mL
- Activity (Trichophyton rubrum): <1 µg/mL
- Activity (Mucor): 100 µg/mL
- Activity (Microsporum canis): 10 µg/mL
- Activity [3]: 10 µg/mL
- Activity (Phialophora verrucosa): 100 µg/mL
- Activity (Candida albicans [4]): 10 µg/mL
- Activity (Cryptococcus neoformans): <1 µg/mL
- Activity (Candida albicans [5]): inactive

Structure (SMILES): Clc1ccccc1CC(Cn1ccnc1)c1ccccc1Cl.O=[N+]([O-])O (stereo not drawn)
- Activity [1]: <1 µg/mL
- Activity (Sporothrix schenckii): 10 µg/mL
- Activity [2]: 1 µg/mL
- Activity (Aspergillus fumigatus): 10 µg/mL
- Activity (Saprolegnia): 100 µg/mL
- Activity (Streptococcus pyogenes): <1 µg/mL
- Activity (Candida tropicalis): >100 µg/mL
- Activity (Trichophyton rubrum): <1 µg/mL
- Activity (Mucor): 100 µg/mL
- Activity (Microsporum canis): 10 µg/mL
- Activity [3]: 100 µg/mL
- Activity (Phialophora verrucosa): 100 µg/mL
- Activity (Candida albicans [4]): 100 µg/mL
- Activity (Cryptococcus neoformans): <1 µg/mL
- Activity (Candida albicans [5]): inactive

Structure (SMILES): Clc1ccc(CC(Cn2ccnc2)c2c(Cl)cccc2Cl)c(Cl)c1.O=[N+]([O-])O (stereo not drawn)
- Activity [1]: 10 µg/mL
- Activity (Sporothrix schenckii): 10 µg/mL
- Activity [2]: 1 µg/mL
- Activity (Aspergillus fumigatus): 100 µg/mL
- Activity (Saprolegnia): 100 µg/mL
- Activity (Streptococcus pyogenes): <1 µg/mL
- Activity (Candida tropicalis): >100 µg/mL
- Activity (Trichophyton rubrum): <1 µg/mL
- Activity (Mucor): 100 µg/mL
- Activity (Microsporum canis): 10 µg/mL
- Activity [3]: 10 µg/mL
- Activity (Phialophora verrucosa): >100 µg/mL
- Activity (Candida albicans [4]): >100 µg/mL
- Activity (Cryptococcus neoformans): 10 µg/mL
- Activity (Candida albicans [5]): inactive

Structure (SMILES): Clc1ccc(C(Cc2c(Cl)cccc2Cl)Cn2ccnc2)c(Cl)c1.O=[N+]([O-])O (stereo not drawn)
- Activity [1]: <1 µg/mL
- Activity (Sporothrix schenckii): <1 µg/mL
- Activity [2]: 1 µg/mL
- Activity (Aspergillus fumigatus): 100 µg/mL
- Activity (Saprolegnia): 100 µg/mL
- Activity (Streptococcus pyogenes): 1 µg/mL
- Activity (Candida tropicalis): 100 µg/mL
- Activity (Trichophyton rubrum): <1 µg/mL
- Activity (Mucor): 100 µg/mL
- Activity (Microsporum canis): 10 µg/mL
- Activity [3]: 100 µg/mL
- Activity (Phialophora verrucosa): 100 µg/mL
- Activity (Candida albicans [4]): 100 µg/mL
- Activity (Cryptococcus neoformans): <1 µg/mL

Structure (SMILES): Clc1ccc(COC(Cn2ccnc2)c2ccc(Cl)cc2Cl)c(Cl)c1 (stereo not drawn) [MICONAZOLE]
- Activity [1]: <1 µg/mL
- Activity (Sporothrix schenckii): 1 µg/mL
- Activity [2]: <1 µg/mL
- Activity (Aspergillus fumigatus): 10 µg/mL
- Activity (Saprolegnia): 10 µg/mL
- Activity (Streptococcus pyogenes): <1 µg/mL
- Activity (Candida tropicalis): 100 µg/mL
- Activity (Trichophyton rubrum): <1 µg/mL
- Activity (Mucor): >100 µg/mL
- Activity (Microsporum canis): 1 µg/mL
- Activity [3]: 10 µg/mL
- Activity (Phialophora verrucosa): 100 µg/mL
- Activity (Candida albicans [4]): 10 µg/mL
- Activity (Cryptococcus neoformans): 1 µg/mL

Structure (SMILES): Clc1ccc(C(Cc2ccccc2)Cn2ccnc2)c(Cl)c1.O=[N+]([O-])O (stereo not drawn)
- Activity [1]: <1 µg/mL
- Activity (Sporothrix schenckii): 10 µg/mL
- Activity [2]: <1 µg/mL
- Activity (Aspergillus fumigatus): 100 µg/mL
- Activity (Saprolegnia): 10 µg/mL
- Activity (Streptococcus pyogenes): <1 µg/mL
- Activity (Candida tropicalis): 10 µg/mL
- Activity (Trichophyton rubrum): <1 µg/mL
- Activity (Mucor): 100 µg/mL
- Activity (Microsporum canis): 10 µg/mL
- Activity [3]: 10 µg/mL
- Activity (Phialophora verrucosa): 10 µg/mL
- Activity (Candida albicans [4]): 100 µg/mL
- Activity (Cryptococcus neoformans): <1 µg/mL
- Activity (Candida albicans [5]): inactive

Structure (SMILES): Cc1ccccc1C(Cc1ccc(Cl)cc1)Cn1ccnc1.O=[N+]([O-])O (stereo not drawn)
- Activity [1]: <1 µg/mL
- Activity (Sporothrix schenckii): 100 µg/mL
- Activity [2]: 1 µg/mL
- Activity (Aspergillus fumigatus): 100 µg/mL
- Activity (Saprolegnia): 100 µg/mL
- Activity (Streptococcus pyogenes): <1 µg/mL
- Activity (Candida tropicalis): >100 µg/mL
- Activity (Trichophyton rubrum): 10 µg/mL
- Activity (Mucor): 100 µg/mL
- Activity (Microsporum canis): 10 µg/mL
- Activity [3]: 10 µg/mL
- Activity (Phialophora verrucosa): 100 µg/mL
- Activity (Candida albicans [4]): >100 µg/mL
- Activity (Cryptococcus neoformans): 10 µg/mL

Structure (SMILES): Clc1ccc(C(Cc2c(Cl)cccc2Cl)Cn2ccnc2)cc1.O=[N+]([O-])O (stereo not drawn)
- Activity [1]: <1 µg/mL
- Activity (Sporothrix schenckii): 10 µg/mL
- Activity [2]: <1 µg/mL
- Activity (Aspergillus fumigatus): 100 µg/mL
- Activity (Saprolegnia): 100 µg/mL
- Activity (Streptococcus pyogenes): <1 µg/mL
- Activity (Candida tropicalis): >100 µg/mL
- Activity (Trichophyton rubrum): 10 µg/mL
- Activity (Mucor): 10 µg/mL
- Activity (Microsporum canis): 10 µg/mL
- Activity [3]: 10 µg/mL
- Activity (Phialophora verrucosa): 100 µg/mL
- Activity (Candida albicans [4]): >100 µg/mL
- Activity (Cryptococcus neoformans): <1 µg/mL

Structure (SMILES): Cc1ccccc1C(Cc1ccc(Cl)cc1Cl)Cn1ccnc1.O=[N+]([O-])O (stereo not drawn)
- Activity [1]: <1 µg/mL
- Activity (Sporothrix schenckii): 10 µg/mL
- Activity [2]: 1 µg/mL
- Activity (Aspergillus fumigatus): 10 µg/mL
- Activity (Saprolegnia): 100 µg/mL
- Activity (Streptococcus pyogenes): 10 µg/mL
- Activity (Candida tropicalis): 100 µg/mL
- Activity (Trichophyton rubrum): <1 µg/mL
- Activity (Mucor): 10 µg/mL
- Activity (Microsporum canis): 10 µg/mL
- Activity [3]: 10 µg/mL
- Activity (Phialophora verrucosa): 100 µg/mL
- Activity (Candida albicans [4]): 100 µg/mL
- Activity (Cryptococcus neoformans): 10 µg/mL

Structure (SMILES): Clc1ccccc1C(Cc1c(Cl)cccc1Cl)Cn1ccnc1.O=[N+]([O-])O (stereo not drawn)
- Activity [1]: <1 µg/mL
- Activity (Sporothrix schenckii): 10 µg/mL
- Activity [2]: 1 µg/mL
- Activity (Aspergillus fumigatus): 10 µg/mL
- Activity (Saprolegnia): 100 µg/mL
- Activity (Streptococcus pyogenes): <1 µg/mL
- Activity (Candida tropicalis): >100 µg/mL
- Activity (Trichophyton rubrum): <1 µg/mL
- Activity (Mucor): >100 µg/mL
- Activity (Microsporum canis): <1 µg/mL
- Activity [3]: 1 µg/mL
- Activity (Phialophora verrucosa): 100 µg/mL
- Activity (Candida albicans [4]): 100 µg/mL
- Activity (Cryptococcus neoformans): 10 µg/mL

Structure (SMILES): Clc1ccc(C(Cc2ccccc2Cl)Cn2ccnc2)c(Cl)c1.O=[N+]([O-])O (stereo not drawn)
- Activity [1]: <1 µg/mL
- Activity (Sporothrix schenckii): <1 µg/mL
- Activity [2]: <1 µg/mL
- Activity (Aspergillus fumigatus): 100 µg/mL
- Activity (Saprolegnia): 10 µg/mL
- Activity (Streptococcus pyogenes): <1 µg/mL
- Activity (Candida tropicalis): <1 µg/mL
- Activity (Trichophyton rubrum): <1 µg/mL
- Activity (Mucor): 100 µg/mL
- Activity (Microsporum canis): 10 µg/mL
- Activity [3]: 10 µg/mL
- Activity (Phialophora verrucosa): 10 µg/mL
- Activity (Candida albicans [4]): 100 µg/mL
- Activity (Cryptococcus neoformans): <1 µg/mL

Structure (SMILES): Clc1ccc(CC(Cn2ccnc2)c2ccccc2Br)cc1.O=[N+]([O-])O (stereo not drawn)
- Activity [1]: <1 µg/mL
- Activity (Sporothrix schenckii): 10 µg/mL
- Activity [2]: <1 µg/mL
- Activity (Aspergillus fumigatus): 100 µg/mL
- Activity (Saprolegnia): 100 µg/mL
- Activity (Streptococcus pyogenes): 1 µg/mL
- Activity (Candida tropicalis): >100 µg/mL
- Activity (Trichophyton rubrum): <1 µg/mL
- Activity (Mucor): 100 µg/mL
- Activity (Microsporum canis): 100 µg/mL
- Activity [3]: 10 µg/mL
- Activity (Phialophora verrucosa): 100 µg/mL
- Activity (Candida albicans [4]): 10 µg/mL
- Activity (Cryptococcus neoformans): <1 µg/mL

Structure (SMILES): Clc1ccc(C(CCc2ccccc2Cl)Cn2ccnc2)c(Cl)c1.O=[N+]([O-])O (stereo not drawn)
- Activity [1]: <1 µg/mL
- Activity (Sporothrix schenckii): <1 µg/mL
- Activity [2]: <1 µg/mL
- Activity (Aspergillus fumigatus): 100 µg/mL
- Activity (Saprolegnia): 100 µg/mL
- Activity (Streptococcus pyogenes): 1 µg/mL
- Activity (Candida tropicalis): >100 µg/mL
- Activity (Trichophyton rubrum): <1 µg/mL
- Activity (Mucor): 100 µg/mL
- Activity (Microsporum canis): 10 µg/mL
- Activity [3]: 1 µg/mL
- Activity (Phialophora verrucosa): 100 µg/mL
- Activity (Candida albicans [4]): 10 µg/mL
- Activity (Cryptococcus neoformans): <1 µg/mL

Structure (SMILES): Cc1ccccc1C(Cc1c(Cl)cccc1Cl)Cn1ccnc1.O=[N+]([O-])O (stereo not drawn)
- Activity [1]: <1 µg/mL
- Activity (Sporothrix schenckii): 100 µg/mL
- Activity [2]: <1 µg/mL
- Activity (Aspergillus fumigatus): 100 µg/mL
- Activity (Saprolegnia): 100 µg/mL
- Activity (Streptococcus pyogenes): <1 µg/mL
- Activity (Candida tropicalis): >100 µg/mL
- Activity (Trichophyton rubrum): <1 µg/mL
- Activity (Mucor): 100 µg/mL
- Activity (Microsporum canis): 10 µg/mL
- Activity [3]: 10 µg/mL
- Activity (Phialophora verrucosa): 100 µg/mL
- Activity (Candida albicans [4]): >100 µg/mL
- Activity (Cryptococcus neoformans): 100 µg/mL

Structure (SMILES): Clc1ccc(C(CCc2ccc(Br)cc2)Cn2ccnc2)c(Cl)c1.O=[N+]([O-])O (stereo not drawn)
- Activity [1]: <1 µg/mL
- Activity (Sporothrix schenckii): 10 µg/mL
- Activity [2]: <1 µg/mL
- Activity (Aspergillus fumigatus): 100 µg/mL
- Activity (Saprolegnia): 10 µg/mL
- Activity (Streptococcus pyogenes): <1 µg/mL
- Activity (Candida tropicalis): 10 µg/mL
- Activity (Trichophyton rubrum): <1 µg/mL
- Activity (Mucor): >100 µg/mL
- Activity (Microsporum canis): 10 µg/mL
- Activity [3]: 10 µg/mL
- Activity (Phialophora verrucosa): 100 µg/mL
- Activity (Candida albicans [4]): >100 µg/mL
- Activity (Cryptococcus neoformans): <1 µg/mL

Structure (SMILES): Clc1ccc(C(Cc2ccc(Cl)cc2Cl)Cn2ccnc2)cc1.O=[N+]([O-])O (stereo not drawn)
- Activity [1]: <1 µg/mL
- Activity (Sporothrix schenckii): 10 µg/mL
- Activity [2]: <1 µg/mL
- Activity (Aspergillus fumigatus): 100 µg/mL
- Activity (Saprolegnia): 100 µg/mL
- Activity (Streptococcus pyogenes): 1 µg/mL
- Activity (Candida tropicalis): 100 µg/mL
- Activity (Trichophyton rubrum): <1 µg/mL
- Activity (Mucor): 100 µg/mL
- Activity (Microsporum canis): 10 µg/mL
- Activity [3]: 10 µg/mL
- Activity (Phialophora verrucosa): 100 µg/mL
- Activity (Candida albicans [4]): 100 µg/mL
- Activity (Cryptococcus neoformans): <1 µg/mL
